According to US9302999B2, “Substituted triazoles as herbicides” (E. I. DU PONT DE NEMOURS AND COMPANY, priority 2012, dated 2016):

What was measured:
Assay type in all cases: in vivo
[1] = system: smartweed (ladysthumb smartweed, Polygonum persicaria); test: Test E pre-/postemergence: smartweed; settings: Postemergence, scale 0 to 100
Text: Seeds of plant species selected from corn (Zea mays), soybean (Glycine max), velvetleaf (Abutilon theophrasti), lambsquarters (Chenopodium album), poinsettia, wild (wild poinsettia, Euphorbia heterophylla), pigweed, palmer (palmer pigweed, Amaranthus palmeri), waterhemp (common waterhemp, Amaranthus rudis), smartweed (ladysthumb smartweed, Polygonum persicaria), surinam grass (Brachiaria decumbens), crabgrass, large (large crabgrass, Digitaria sanguinalis), crabgrass, Brazil (Brazilian crabgrass, Digitaria horizontalis), panicum, fall (fall panicum, Panicum dichotomiflorum), foxtail, giant (giant foxtail, Setaria faberii), foxtail, green (green foxtail, Setaria viridis), goosegrass (Eleusine indica), johnsongrass (Sorghum halepense), ragweed (common ragweed, Ambrosia elation), barnyardgrass (Echinochloa crus-galli), sandbur (southern sandbur, Cenchrus echinatus), arrowleaf sida (Sida rhombifolia), ryegrass, Italian (Italian ryegrass, Lolium multiflorum), dayflower, (VA) (Virginia dayflower, Commelina virginica), field bindweed (Convolvulus arvensis), cocklebur (common cocklebur, Xanthium strumarium), morningglory (Ipomoea coccinea), nightshade (eastern black nightshade, Solanum ptycanthum), kochia (Kochia scoparia), nutsedge, yellow (yellow nutsedge, Cyperus esculentus) and beggarticks (hairy beggarticks, Bidens pilosa) were planted into a silt loam soil and treated preemergence with test chemicals formulated in a non-phytotoxic solvent mixture which included a surfactant. At the same time, plants selected from these crop and weed species were planted in pots containing a growing medium comprising spaghnum peat moss, vermiculite, wetting agent and starter nutrients and treated with postemergence applications of some of the test chemicals formulated in the same manner. Plants ranged in height from 2 to 18 cm for postemergence treatments (1- to 4-leaf stage).
Treated plants and controls were maintained in a greenhouse for 14 to 21 days, after which time all species were compared to controls and visually evaluated. Plant response ratings, summarized in Table E, are based on a scale of 0 to 100 where 0 is no effect and 100 is complete control. A dash (-) response means no test result.

[2] = system: barley (HORBW, Hordeum vulgare); test: Test H post-emergence, alone and in combination: barley
Text: (§1) Seeds of plant species selected from wheat (TRZAW, Triticum aestivum), barley (HORBW, Hordeum vulgare), Kochia (KCHSC, Kochia caoparia) blackgrass (ALOMY, Alopecurus myosuroides), canarygrass (PHAMI, Phalaris minor), Italian ryegrass (LOLMU, Lolium multiflorum) common lambsquarter (CHEAL, Chenopodium album), pigweed (AMARE, Amaranthus retroflexus), Common Chickweed (STEME, Stellaria media), Russian thistle (SASKR, Salsola iberica), Wild Buckwheat (POLCO, Polygonum convolvulus), Catchweed Bedstraw (GALAP, Galium aparine), Mustard (SINAR, Sinapisar arvensis), Henbit Deadnettle (LAMAM, Lamium amplexicaule), Wild Radish (RAPRA, Raphanus raphanistrum), Field Poppy (PAPRH, Papaver rhoeas), Field Violet (VIOAR, Viola arvennsis), Scentless Chamomile (MATIN Matricaria inodora) were planted into soil and treated post-emergence with test chemicals formulated in a non-phytotoxic solvent mixture. Plants were grown in a greenhouse using supplemental lighting to maintain a photoperiod of approximately 14 hours; daytime and nighttime temperatures were approximately 23°-29° and 16°-19° Celsius, respectively. Balanced fertilizer was applied through the watering system. Treated plants and controls were maintained in a greenhouse for 20 days, after which time all species were compared to controls and visually evaluated. Plant response ratings were calculated as the mean of three replicates (unless otherwise indicated), are summarized in Table G, and are based on a scale of 0 to 100 where 0 is no effect and 100 is complete control. A dash (-) response means no test result.

[3] = system: common lambsquarter (CHEAL, Chenopodium album); test: Test H post-emergence, alone and in combination: common lambsquarter
Text: as §1

[4] = system: Catchweed Bedstraw (GALAP, Galium aparine); test: Test H post-emergence, alone and in combination: Catchweed Bedstraw
Text: as §1

[5] = system: Field Poppy (PAPRH, Papaver rhoeas); test: Test H post-emergence, alone and in combination: Field Poppy
Text: as §1

[6] = system: canarygrass (PHAMI, Phalaris minor); test: Test H post-emergence, alone and in combination: canarygrass
Text: as §1

[7] = system: blackgrass (ALOMY, Alopecurus myosuroides); test: Test H post-emergence, alone and in combination: blackgrass
Text: as §1

[8] = system: Mustard (SINAR, Sinapisar arvensis); test: Test H post-emergence, alone and in combination: Mustard
Text: as §1

[9] = system: Wild Radish (RAPRA, Raphanus raphanistrum); test: Test H post-emergence, alone and in combination: Wild Radish
Text: as §1

[10] = system: Kochia (KCHSC, Kochia caoparia); test: Test H post-emergence, alone and in combination: Kochia
Text: as §1

[11] = system: Henbit Deadnettle (LAMAM, Lamium amplexicaule); test: Test H post-emergence, alone and in combination: Henbit Deadnettle
Text: as §1

[12] = system: Scentless Chamomile (MATIN Matricaria inodora); test: Test H post-emergence, alone and in combination: Scentless Chamomile
Text: as §1

SMILES: Cc1nn(-c2ccc(C(F)(F)F)cc2)nc1Cc1ccnc(C(F)(F)F)c1 [Compound 47, 4-[[5-methyl-2-[4-(trifluoromethyl)phenyl]-2H-1,2,3-triazol-4-yl]methyl]-2-(trifluoromethyl)pyridine]
- Plant response rating: Smartweed ([1]; 250 g ai/ha): 85
- Plant response rating: Smartweed ([1]; 16 g ai/ha): 30
- Plant response rating: Smartweed ([1]; 31 g ai/ha): 40
- Plant response rating: Smartweed ([1]; 62 g ai/ha): 50
- Plant response rating: Smartweed ([1]; 125 g ai/ha): 80

SMILES: Cc1nn(-c2ccc(F)cc2)nc1Oc1ccnc(C(F)(F)F)c1 [Compound 129, 4-[[2-(4-fluorophenyl)-5-methyl-2H-1,2,3-triazol-4-yl]oxy]-2-(trifluoromethyl)pyridine]
- HORBW plant response ([2]; Rate 31): 10
- HORBW plant response ([2]; Rate 62): 15
- HORBW plant response ([2]; Rate 125): 15
- CHEAL plant response ([3]; Rate 31): 85
- CHEAL plant response ([3]; Rate 62): 80
- CHEAL plant response ([3]; Rate 125): 90
- GALAP plant response ([4]; Rate 31): 65
- GALAP plant response ([4]; Rate 62): 60
- GALAP plant response ([4]; Rate 125): 70
- PAPRH plant response ([5]; Rate 31): 85
- PAPRH plant response ([5]; Rate 62): 90
- PAPRH plant response ([5]; Rate 125): 90
- PHAMI plant response ([6]; Rate 31): 15
- PHAMI plant response ([6]; Rate 62): 20
- PHAMI plant response ([6]; Rate 125): 60
- ALOMY plant response ([7]; Rate 31): 5
- ALOMY plant response ([7]; Rate 62): 10
- ALOMY plant response ([7]; Rate 125): 30
- SINAR plant response ([8]; Rate 31): 80
- SINAR plant response ([8]; Rate 62): 95
- SINAR plant response ([8]; Rate 125): 95
- RAPRA plant response ([9]; Rate 31): 60
- RAPRA plant response ([9]; Rate 62): 85
- RAPRA plant response ([9]; Rate 125): 90
- KCHSC plant response ([10]; Rate 31): 80
- KCHSC plant response ([10]; Rate 62): 85
- KCHSC plant response ([10]; Rate 125): 95
- LAMAM plant response ([11]; Rate 31): 60
- LAMAM plant response ([11]; Rate 62): 70
- LAMAM plant response ([11]; Rate 125): 80
- MATIN plant response ([12]; Rate 31): 0
- MATIN plant response ([12]; Rate 62): 5
- MATIN plant response ([12]; Rate 125): 10
